Experimental data: patent US12440493B2, “Combination therapy for treating cancer comprising substituted piperazines” (Eli Lilly and Company, priority 2020, dated 2025)
“And” between values parts separate entries of the source, which are not always exact repeats. Equal values may be shown once.

Experiments:
[1] = system: IDH1(R132H) primary human AML cells; experiment: Bone marrow AML clearance (flow cytometry), human AML PDx models in NSG mice; assay type: in vivo; conditions: for Bone Marrow AML Clearance: % hCD33 + hCD45+ (% of white cells) / Bone Marrow AML Clearance: % hCD45+ (% of white cells): QD, PO, each line one animal
Description: (§1) Compounds and Formulation. For in vivo studies, each test article is prepared at an appropriate concentration with vehicle. […] Compound A is prepared fresh at the appropriate concentrations with vehicle every 7 days and stored at 4° C. between doses. […] Cytarabine is prepared fresh weekly by dilution with sterile saline from stock solution of Cytarabine (injection 20 mg/mL, (Pfizer injectables')). Azacitidine (Sigma, Lot #MKBR7212) is formulated in sterile water and is prepared fresh daily immediately before dosing. In vivo human AML PDx models. […] Two models are used in the studies: […] As needed, splenocytes from tumor-bearing mice are used to propagate and expand the models, as described. Each test article is prepared as described above at an appropriate concentration with vehicle to give animals the doses tested in this study at a dosing volume of 10 μL/gram body weight. Mice receiving Compound A (PO, QD) are treated at the indicated doses for the duration of the study. The combination agents are dosed as follows: […] Treated mice are assessed in comparison to vehicle treated and naïve (non-tumor bearing) control mice. Body weight is recorded twice per week. […] AML PDx model propagation. […] Spleens are processed and splenocytes isolated as described below. Two hundred μL per subject of the splenocyte prep is injected IV (intravenous, tail vein) into recipient NSG mice. […] Once engraftment is confirmed, the mice are monitored biweekly until ready to be put on study. […] Submandibular blood is collected. Spleen/Splenocyte Processing and Prep. After excision, a spleen is weighed, and […] is placed in a standard sterile 15 mL polypropylene conical tube containing PBS, and placed on ice. […] The spleen is placed in ice cold sterile PBS in a 15 mL collection tube. The spleen is removed from the collection tube and placed in a 100 micron 50 mL conical tube cell strainer (BD Falcon #352360). The spleen is processed by gentle rubbing of the spleen tissue against the surface of the cell strainer with the end of a 5 mL syringe plunger in a circular motion. The surface of the strainer is rinsed with 10 mL room temperature sterile DPBS (HyClone SH30028) 3 times during the process. […] The cell pellet is collected by centrifugation (300×g) and washed three times with 30 mL sterile DPBS. The cells are counted and resuspended in DPBS at the desired implant concentration. Bone Marrow Collection. […] Flow cytometry analysis of human white cells. Submandibular blood samples from in vivo studies are collected. Fluor-conjugated antibody stains are added according to the manufacturer's instructions (anti-human CD33-PE (clone WM53, BD Cat #555450), anti-human CD14-APC (clone MφpP9, BD Cat #340436), anti-human CD15-V450 (clone HI98, BD Cat #561584), anti-human CD117-BV421 (clone YB5.B8, BD Cat #562434), anti-human […]7 (clone ICRF44, BD Cat #557754), anti-human […]7 (clone HI30, BD Cat #557748), and anti-human CD3-FITC (clone SK7, BD Cat #340542)). The samples are incubated for 30 minutes at room temperature, protected from light. After the incubation, 1.5 mL 1×BD Lyse/Fix (37° C., (BD #558049)) is added to each sample and incubated for 12 minutes at room temperature. The tubes are centrifuged at 300×g for 7 minutes. BD Lyse/Fix solution is aspirated and the cell pellet washed with stain/wash buffer 3 times (1 wash step consisted of: pellet resuspended in 3 mL stain/wash buffer, centrifuged at 300×g, aspirated wash). Fixed cells are then resuspended in 300 to 400 μL stain/wash buffer. Samples are analyzed on a Becton Dickinson FACSVerse Flow cytometer (Cat #651155 Serial #Z6511550447) using standard flow cytometry principles and techniques. Samples are analyzed on the same day as they are stained and fixed. Population gating and data analysis of percent population are performed in the FACSuite software on the FACSVerse cytometer. Percent population values from the data analysis are plotted in Graphpad Prism or in JMP13. […]

[2] = system: IDH1(R132H) primary human AML cells; experiment: AML clearance in peripheral blood (flow cytometry, % hCD33+hCD45+ of total white cells), human AML PDx models in NSG mice; assay type: in vivo; conditions: QD, PO, each value one animal
Description: as §1

## C=CC(=O)N1CCN([C@@H](CC2CC2)c2ccc([C@H](C)Nc3ncc4c(n3)N(CC)C(=O)OC4)cc2)CC1 [Compound A, 7-[[(1S)-1-[4-[(1S)-2-cyclopropyl-1-(4-prop-2-enoylpiperazin-1-yl)ethyl]phenyl]ethyl]amino]-1-ethyl-4H-pyrimido[4,5-d][1,3]oxazin-2-one]
[1]; 1 mg/kg Compound A
  Bone Marrow AML Clearance: % hCD33 + hCD45+ (% of white cells): 87.74% and 92.23%
  Bone Marrow AML Clearance: % hCD45+ (% of white cells): 88.34% and 92.36%
[1]; 3.3 mg/kg Compound A, Table 1C
  Bone Marrow AML Clearance: % hCD33 + hCD45+ (% of white cells): 98.6% and 44.3% and 98.54% and 86.55%
  Bone Marrow AML Clearance: % hCD45+ (% of white cells): 98.36% and 43.99% and 98.15% and 86.21%
[1]; 3.3 mg/kg Compound A, Table 2C
  Bone Marrow AML Clearance: % hCD33 + hCD45+ (% of white cells): 72.73% and 84.3% and 99.41% and 91.97%
  Bone Marrow AML Clearance: % hCD45+ (% of white cells): 72.6% and 84.16% and 99.3% and 91.11%
[1]; 10 mg/kg Compound A
  Bone Marrow AML Clearance: % hCD33 + hCD45+ (% of white cells): 8.65% and 4.27% and 1.09% and 0.78% and 1.84%
  Bone Marrow AML Clearance: % hCD45+ (% of white cells): 8.66% and 4.28% and 1.11% and 0.78% and 1.85%
[1]; group B: 1 mg Compound A, vehicle 86%
  % human AML cells in bone marrow (of white cells; lower = more clearance): 90%
[1]; group B: Compound A (3.3 mg/kg), azacitidine study, vehicle 94%
  % human AML cells in bone marrow (of white cells; lower = more clearance): 87%
[1]; group B: Compound A (3.3 mg/kg), cytarabine study, vehicle 94%
  % human AML cells in bone marrow (of white cells; lower = more clearance): 78%
[1]; group C: 10 mg Compound A, vehicle 86%
  % human AML cells in bone marrow (of white cells; lower = more clearance): 2.3%
[2]; Treatment day 2, 3.3 mg/kg Compound A, Table 2A, 3.3 mg/kg
  AML clearance (% hCD33 + hCD45+ (of total white cells)): 17.05% and 19.48% and 22.89% and 20.16% and 18.6% and 25.83% and 19.49%
[2]; Treatment day 7, 1 mg/kg Compound A, 1 mg/kg
  AML clearance (% hCD33 + hCD45+ (of total white cells)): 12.21% and 7.04% and 6.97% and 8.4% and 10.28%
[2]; Treatment day 7, 10 mg/kg Compound A, 10 mg/kg
  AML clearance (% hCD33 + hCD45+ (of total white cells)): 4.04% and 3.35% and 6.37% and 4.2% and 2.73%
[2]; Treatment day 15, 3.3 mg/kg Compound A, Table 2A, 3.3 mg/kg
  AML clearance (% hCD33 + hCD45+ (of total white cells)): 35.68% and 39.36% and 39.41% and 22.01% and 44.8% and 40.7% and 29.24%
[2]; Treatment day 18, 3.3 mg/kg Compound A, 3.3 mg/kg
  AML clearance (% hCD33 + hCD45+ (of total white cells)): 20.86% and 33.61% and 41.83% and 32.38% and 38.57% and 42.91% and 20.85%
[2]; Treatment day 23, 1 mg/kg Compound A, 1 mg/kg
  AML clearance (% hCD33 + hCD45+ (of total white cells)): 16.54% and 9.05% and 15.88% and 9.45%
[2]; Treatment day 23, 10 mg/kg Compound A, 10 mg/kg
  AML clearance (% hCD33 + hCD45+ (of total white cells)): 4.97% and 1.6% and 8.52% and 2.88% and 2.41%
[2]; Treatment day 28, 3.3 mg/kg Compound A, Table 2A, 3.3 mg/kg
  AML clearance (% hCD33 + hCD45+ (of total white cells)): 32.12% and 43.09% and 32.66% and 35.22% and 35% and 33.35%
[2]; Treatment day 34, 3.3 mg/kg Compound A, 3.3 mg/kg
  AML clearance (% hCD33 + hCD45+ (of total white cells)): 27.18% and 34.09% and 34.27% and 48.87% and 20.33% and 33.11% and 34.28%
[2]; Treatment day 36, 1 mg/kg Compound A, 1 mg/kg
  AML clearance (% hCD33 + hCD45+ (of total white cells)): 16.96% and 20.94% and 15.66% and 13.65%
[2]; Treatment day 36, 10 mg/kg Compound A, 10 mg/kg
  AML clearance (% hCD33 + hCD45+ (of total white cells)): 4.67% and 3.89% and 4.32% and 2.11% and 2.39%
[2]; Treatment day 43, 3.3 mg/kg Compound A, Table 2A, 3.3 mg/kg
  AML clearance (% hCD33 + hCD45+ (of total white cells)): 59.89% and 65.62% and 61.99% and 47.87% and 52.96% and 62.25% and 27.91%
[2]; Treatment day 47, 3.3 mg/kg Compound A, 3.3 mg/kg
  AML clearance (% hCD33 + hCD45+ (of total white cells)): 64.21% and 29.4% and 31.38% and 63.41% and 45.19% and 20.69% and 37.68%
